Several values for one entry are separate records, joined by “and”; a condition that tells them apart may be missing. Equal values may be shown once.
Legend:
[1] = test system: patients with Severe Refractory Chronic Hand Eczema (CHE); assay: Clinical trial simulation (longitudinal dose response model): time from initial dose to onset of effect; assay type: in vivo, human; conditions: age 75 yr; 30 mg
Method: (§1) In reviewing the data to make these determinations, all available PGA scores observed (not including scores derived from missing data such as last observation carried forward (LOCF) including those at baseline, every 4 weeks during treatment, and every 4 to 8 weeks after cessation of treatment for up to 72 weeks post treatment from the various clinical trials were used to develop a longitudinal dose response model.
(§2) In clinical studies, efficacy was measured using PGA score and modified total lesion signs and symptoms (mTLSS) at various times during and post treatment. PGA scores over time were chosen for this analysis because PGA scores were the primary endpoint in the Phase III studies and were collected at more time points than the mTLSS. The PGA was graded according to 5 point scale (clear, almost clear, mild disease, moderate disease, severe disease). The mTLSS severity score was graded 0 to 3 for 7 parameters.
A >2 weeks time to onset is considered clinically relevant.

[2] = test system: patients with Severe Refractory Chronic Hand Eczema (CHE); assay: Clinical trial simulation (longitudinal dose response model): no relapse (PGA ≠ 5) by 6 months post treatment; assay type: in vivo, human; conditions: for Proportion of Responders Who Did Not Relapse (PGA ≠ 5) 6 months Post Treatment / Proportion of Subjects with PGA = 1 at end of treatment who did not relapse (PGA ≠ 5) 6 Months Post Treatment / Proportion of Subjects with PGA = 2 at the end of treatment who did not relapse (PGA ≠ 5) 6 Months Post Treatment / Proportion of Subjects with PGA = 3 at the end of treatment who did not relapse (PGA ≠ 5) 6 Months Post Treatment / Proportion of Subjects with PGA = 1 Who Did Not Relapse (PGA ≠ 5) 6 Months Post Treatment / Proportion of Subjects with PGA = 2 Who Did Not Relapse (PGA ≠ 5) 6 Months Post Treatment / Proportion of Subjects with PGA = 3 Who Did Not Relapse (PGA ≠ 5) 6 Months Post Treatment: 30 mg
Method: as §1, §2
For the Physician Global Assessment (PGA), a general description of CHE severity, which is a well recognized scale is shown below in Table 7 for clarification purposes.

SMILES: CC1=C(/C=C/C(C)=C\C=C\C(C)=C\C(=O)O)C(C)(C)CCC1 [Alitretinoin, 9-cis isomer of retinoic acid (RA)]
- Time to Onset of Effect (a Drop of 2 or More Points in PGA in 30% of Subjects) [1]: 39 (35, 42) Days
- subjects who responded (PGA score=1 or 2) who would not return to severe disease within 6 months post treatment ([2]; PGA score=1 or 2): > 83%
- difference between a 75 year old and 30 year old in the proportion of patients who did not relapse (PGA score≠5) 6 months after treatment ([2]; PGA=1 or PGA=2 at end of treatment (individually)): 10%
- Proportion of Responders Who Did Not Relapse (PGA ≠ 5) 6 months Post Treatment ([2]; age 30 yr): 79% and 78.7 (67, 90) %
- Proportion of Subjects with PGA = 1 at end of treatment who did not relapse (PGA ≠ 5) 6 Months Post Treatment ([2]; age 30 yr): 77.7 (56, 92) %
- Proportion of Subjects with PGA = 2 at the end of treatment who did not relapse (PGA ≠ 5) 6 Months Post Treatment ([2]; age 30 yr): 77.6 (62, 91) %
- Proportion of Subjects with PGA = 3 at the end of treatment who did not relapse (PGA ≠ 5) 6 Months Post Treatment ([2]; age 30 yr): 76.8 (63, 89) %
- Proportion of Responders Who Did Not Relapse (PGA ≠ 5) 6 months Post Treatment ([2]; age 50 yr): 83.2 (73, 92) %
- Proportion of Subjects with PGA = 1 at end of treatment who did not relapse (PGA ≠ 5) 6 Months Post Treatment ([2]; age 50 yr): 82.4 (65, 94) %
- Proportion of Subjects with PGA = 2 at the end of treatment who did not relapse (PGA ≠ 5) 6 Months Post Treatment ([2]; age 50 yr): 82.6 (70, 93) %
- Proportion of Subjects with PGA = 3 at the end of treatment who did not relapse (PGA ≠ 5) 6 Months Post Treatment ([2]; age 50 yr): 81.1 (68, 93) %
- Proportion of Responders Who Did Not Relapse (PGA ≠ 5) 6 months Post Treatment ([2]; age 65 yr): 87% and 86.6 (78, 94) %
- Proportion of Subjects with PGA = 1 at end of treatment who did not relapse (PGA ≠ 5) 6 Months Post Treatment ([2]; age 65 yr): 86.0 (73, 95) %
- Proportion of Subjects with PGA = 2 at the end of treatment who did not relapse (PGA ≠ 5) 6 Months Post Treatment ([2]; age 65 yr): 86.0 (74, 96) %
- Proportion of Subjects with PGA = 3 at the end of treatment who did not relapse (PGA ≠ 5) 6 Months Post Treatment ([2]; age 65 yr): 84.3 (72, 95) %
- Proportion of Responders Who Did Not Relapse (PGA ≠ 5) 6 months Post Treatment ([2]; age 75 yr): 89% and 88.7 (81, 95) %
- Proportion of Subjects with PGA = 1 at end of treatment who did not relapse (PGA ≠ 5) 6 Months Post Treatment ([2]; age 75 yr): 88.1 (76, 96) %
- Proportion of Subjects with PGA = 2 at the end of treatment who did not relapse (PGA ≠ 5) 6 Months Post Treatment ([2]; age 75 yr): 88.0 (78, 96) %
- Proportion of Subjects with PGA = 3 at the end of treatment who did not relapse (PGA ≠ 5) 6 Months Post Treatment ([2]; age 75 yr): 86.5 (74, 96) %
- Proportion of Responders Who Did Not Relapse (PGA ≠ 5) 6 months Post Treatment ([2]; duration of treatment 4 weeks): 79.2 (68, 89) %
- Proportion of Subjects with PGA = 1 Who Did Not Relapse (PGA ≠ 5) 6 Months Post Treatment ([2]; duration of treatment 4 weeks): 79.8 (61, 93) %
- Proportion of Subjects with PGA = 2 Who Did Not Relapse (PGA ≠ 5) 6 Months Post Treatment ([2]; duration of treatment 4 weeks): 77.9 (64, 91) %
- Proportion of Subjects with PGA = 3 Who Did Not Relapse (PGA ≠ 5) 6 Months Post Treatment ([2]; duration of treatment 4 weeks): 76.4 (62, 88) %
- Proportion of Responders Who Did Not Relapse (PGA ≠ 5) 6 months Post Treatment ([2]; duration of treatment 8 weeks): 80.7 (70, 90) %
- Proportion of Subjects with PGA = 1 Who Did Not Relapse (PGA ≠ 5) 6 Months Post Treatment ([2]; duration of treatment 8 weeks): 81.0 (63, 94) %
- Proportion of Subjects with PGA = 2 Who Did Not Relapse (PGA ≠ 5) 6 Months Post Treatment ([2]; duration of treatment 8 weeks): 79.5 (67, 92) %
- Proportion of Subjects with PGA = 3 Who Did Not Relapse (PGA ≠ 5) 6 Months Post Treatment ([2]; duration of treatment 8 weeks): 77.8 (65, 89) %
- Proportion of Responders Who Did Not Relapse (PGA ≠ 5) 6 months Post Treatment ([2]; duration of treatment 12 weeks): 82.3 (68, 95) %
- Proportion of Subjects with PGA = 1 Who Did Not Relapse (PGA ≠ 5) 6 Months Post Treatment ([2]; duration of treatment 12 weeks): 81.9 (64, 94) %
- Proportion of Subjects with PGA = 2 Who Did Not Relapse (PGA ≠ 5) 6 Months Post Treatment ([2]; duration of treatment 12 weeks): 80.8 (68, 92) %
- Proportion of Subjects with PGA = 3 Who Did Not Relapse (PGA ≠ 5) 6 Months Post Treatment ([2]; duration of treatment 12 weeks): 79.1 (67, 90) %
- Proportion of Responders Who Did Not Relapse (PGA ≠ 5) 6 months Post Treatment ([2]; duration of treatment 16 weeks): 83.3 (72, 94) %
- Proportion of Subjects with PGA = 1 Who Did Not Relapse (PGA ≠ 5) 6 Months Post Treatment ([2]; duration of treatment 16 weeks): 82.5 (66, 94) %
- Proportion of Subjects with PGA = 2 Who Did Not Relapse (PGA ≠ 5) 6 Months Post Treatment ([2]; duration of treatment 16 weeks): 81.7 (69, 92) %
- Proportion of Subjects with PGA = 3 Who Did Not Relapse (PGA ≠ 5) 6 Months Post Treatment ([2]; duration of treatment 16 weeks): 80.1 (67, 91) %
- Proportion of Responders Who Did Not Relapse (PGA ≠ 5) 6 months Post Treatment ([2]; duration of treatment 20 weeks): 83.9 (72, 94) %
- Proportion of Subjects with PGA = 1 Who Did Not Relapse (PGA ≠ 5) 6 Months Post Treatment ([2]; duration of treatment 20 weeks): 83.1 (67, 94) %
- Proportion of Subjects with PGA = 2 Who Did Not Relapse (PGA ≠ 5) 6 Months Post Treatment ([2]; duration of treatment 20 weeks): 82.6 (69, 94) %
- Proportion of Subjects with PGA = 3 Who Did Not Relapse (PGA ≠ 5) 6 Months Post Treatment ([2]; duration of treatment 20 weeks): 80.9 (68, 92) %
- Proportion of Responders Who Did Not Relapse (PGA ≠ 5) 6 months Post Treatment ([2]; duration of treatment 24 weeks): 84.4 (75, 93) %
- Proportion of Subjects with PGA = 1 Who Did Not Relapse (PGA ≠ 5) 6 Months Post Treatment ([2]; duration of treatment 24 weeks): 83.7 (67, 94) %
- Proportion of Subjects with PGA = 2 Who Did Not Relapse (PGA ≠ 5) 6 Months Post Treatment ([2]; duration of treatment 24 weeks): 83.3 (70, 95) %
- Proportion of Subjects with PGA = 3 Who Did Not Relapse (PGA ≠ 5) 6 Months Post Treatment ([2]; duration of treatment 24 weeks): 81.6 (68, 92) %

Reference: US20150202172A1, “NOVEL METHOD OF USE” (Glaxo Group Limited, priority 2014, published 2015)
